Data taken from patent US12435061B2 (priority 2020, dated 2025).
Values after ≈ are worked out from the molar mass of the structure shown. Where two headings read alike, the source gives them in different places.

Legend:
[1] = Metabolic Stability assay, rat liver microsomes; type: in vitro ADME
Method in brief: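 Reactions in human or rat liver microsomes at 37 °C were started with an NADPH-regenerating system, using 1 μM compound initially. Samples were taken at 0, 7, 15, 30 and 60 min, quenched in ice-cold acetonitrile/MeOH/H2O, and quantified by HPLC/MS/MS.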

hTRPV3 [2] = target: T1, hTRPV3 (Homo sapiens (Human), UniProt Q8NET8); test: Whole-cell patch clamp, hTRPV3 Phase 1 / Phase 2 currents; type: cell-based; settings: Phase 1 current
T1 sequence (Q8NET8 whole entry): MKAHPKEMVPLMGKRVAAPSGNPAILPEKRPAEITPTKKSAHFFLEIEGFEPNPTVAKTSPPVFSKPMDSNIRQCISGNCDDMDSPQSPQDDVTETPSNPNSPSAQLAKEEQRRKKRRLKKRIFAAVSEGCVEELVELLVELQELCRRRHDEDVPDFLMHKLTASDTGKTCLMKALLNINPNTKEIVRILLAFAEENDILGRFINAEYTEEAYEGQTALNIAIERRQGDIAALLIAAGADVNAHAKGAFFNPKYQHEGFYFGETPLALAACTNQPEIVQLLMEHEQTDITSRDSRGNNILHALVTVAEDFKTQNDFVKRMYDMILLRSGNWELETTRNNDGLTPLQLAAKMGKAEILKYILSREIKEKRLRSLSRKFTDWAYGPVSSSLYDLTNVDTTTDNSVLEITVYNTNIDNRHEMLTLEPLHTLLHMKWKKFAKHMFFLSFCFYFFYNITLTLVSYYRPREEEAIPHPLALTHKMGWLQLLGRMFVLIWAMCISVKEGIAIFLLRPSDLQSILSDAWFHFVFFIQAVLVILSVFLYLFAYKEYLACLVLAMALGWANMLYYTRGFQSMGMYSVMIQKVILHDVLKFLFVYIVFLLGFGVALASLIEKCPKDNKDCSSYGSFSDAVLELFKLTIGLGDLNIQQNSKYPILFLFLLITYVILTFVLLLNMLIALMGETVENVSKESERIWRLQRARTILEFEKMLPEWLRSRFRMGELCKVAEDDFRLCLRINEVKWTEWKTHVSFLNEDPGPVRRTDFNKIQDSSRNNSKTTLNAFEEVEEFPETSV
Method in brief: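 Currents are activated by 20 μM 2-APB or by perfusate at 28 °C or warmer, in Ringer's solution, and quantified at ±80 mV.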

[3] = Aqueous solubility assay in Normal Ringer Solution; settings: Normal Ringer Solution, saline or isotonic, kinetic from dmso stock
Protocol: Following vortex and incubation for a sufficient time (e.g. 40 minutes at room temperature), solutions were filtered, quenched with acetonitrile, and analyzed by Liquid Chromotography. Solubility Limits were determined by comparison to a standard curve.

hTRPV3 [4] = target: T1, hTRPV3; test: hTRPV3 HAMA IC50 assay (Hamamatsu FDSS6000 calcium flux, TRex-293 cells)
Protocol: IC50s were calculated using CBIS from ChemInnovation (San Diego).

human hERG channels = human hERG channels (Homo sapiens (Human), UniProt Q12809); test: hERG assay (patch clamp, CHO cells); type: cell-based; settings: (PL); read-out: hERG (nM) (PL)
Chain of human hERG channels (Q12809 whole entry): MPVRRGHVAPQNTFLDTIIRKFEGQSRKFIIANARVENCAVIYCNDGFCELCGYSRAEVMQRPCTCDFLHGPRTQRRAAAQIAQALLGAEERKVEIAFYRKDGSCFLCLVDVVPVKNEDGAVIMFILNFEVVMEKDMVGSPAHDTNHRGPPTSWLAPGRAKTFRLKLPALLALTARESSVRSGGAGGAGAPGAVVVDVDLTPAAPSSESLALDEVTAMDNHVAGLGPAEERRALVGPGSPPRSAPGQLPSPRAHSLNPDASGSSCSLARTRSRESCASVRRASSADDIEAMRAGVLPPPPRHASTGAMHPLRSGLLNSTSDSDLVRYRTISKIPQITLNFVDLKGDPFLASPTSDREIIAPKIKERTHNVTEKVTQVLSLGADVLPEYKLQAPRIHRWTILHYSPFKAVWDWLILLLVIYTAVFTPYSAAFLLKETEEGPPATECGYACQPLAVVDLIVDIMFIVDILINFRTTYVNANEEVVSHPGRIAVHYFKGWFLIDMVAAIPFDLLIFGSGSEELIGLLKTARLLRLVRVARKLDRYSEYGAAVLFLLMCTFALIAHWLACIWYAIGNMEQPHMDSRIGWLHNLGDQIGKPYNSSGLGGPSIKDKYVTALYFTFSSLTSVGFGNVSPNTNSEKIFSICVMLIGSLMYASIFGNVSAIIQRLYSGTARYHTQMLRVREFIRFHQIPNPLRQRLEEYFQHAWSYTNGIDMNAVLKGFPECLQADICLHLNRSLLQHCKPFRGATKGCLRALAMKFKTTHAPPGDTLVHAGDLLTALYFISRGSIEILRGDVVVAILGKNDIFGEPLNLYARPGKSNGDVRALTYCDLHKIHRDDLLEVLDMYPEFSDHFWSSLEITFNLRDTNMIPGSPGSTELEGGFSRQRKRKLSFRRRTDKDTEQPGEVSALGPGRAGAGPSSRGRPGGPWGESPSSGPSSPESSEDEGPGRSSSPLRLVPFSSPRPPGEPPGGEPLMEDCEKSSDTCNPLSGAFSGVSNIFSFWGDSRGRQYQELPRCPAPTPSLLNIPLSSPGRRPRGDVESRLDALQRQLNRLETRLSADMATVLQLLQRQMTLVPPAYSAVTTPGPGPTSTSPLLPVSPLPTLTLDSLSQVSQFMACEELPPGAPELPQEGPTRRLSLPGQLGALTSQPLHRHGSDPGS
Protocol: hERG assay: Briefly, cells from a stable CHO cell line expressing human hERG channels were plated onto glass coverslips and used in patch clamp assays on the same day. After seal formation and break-in to whole-cell configuration, voltage steps were applied as follows: from the holding potential of −90 mV, a 2 second long step to +40 mV was applied, followed by a 1.5 second step to −50 mV. These steps were applied once every 5 seconds. The hERG current was measured at the peak of the outward tail current at −50 mV. The pipette solution was potassium aspartate based and the external solution was normal Ringer's.
All currents were recorded in whole-cell configuration using an Axopatch 200B controlled by pClamp 10 software (Molecular Devices). In each cell, when the current stabilized, the compound was perfused locally onto the cell. Two to three concentrations of the test compound were applied to each cell. At the end of compound testing, 10 μM verapamil was applied to completely block hERG currents and assess leak current.
Data were analyzed by computing the degree of current block after compound addition compared with the unblocked current amplitude. The unblocked current was predicted from the interpolation between the current amplitude prior to compound addition and after compound washout. The resulting percent block at each concentration was used to make a concentration-response plot and fitted to the Hill equation: percent block=minimum block+(maximum block-minimum block)/(1+10^(Hill slope*(log IC50−concentration))).

hTRPV3 [5] = target: T1, hTRPV3; test: FLIPR Assay (calcium flux, HEK293 cells stably expressing TRPV3); type: cell-based
Protocol: In Tables 3 and 4, Phase 1 refers to Phase 1 current for human (h) TRPV3 or rat (r) TRPV3, and Phase 2 refers to Phase 2 current for human (h) TRPV3 or rat (r) TRPV3. The hTRPV3 and rTRPV3 assays were performed as described herein. hERG refers to the inhibition the human ERG (hERG) channel. NaV1.5, refers to the pore forming aL-subunit of the voltage-dependent cardiac Na(+) channel and is an integral membrane protein involved in the initiation and conduction of action potentials. hTRPV3 HAMA IC50 refers to the IC50 of TRPV3 cells stably expressed in TRex-293 cells. Solubility Ringer refers to the compounds' solubility in Ringer's solution. LM T1/2 refers to liver microsome half-lives in either rat or human liver microsomes. FLIPR IC50 refers to the IC50 of the test compounds against recombinant hTRPV3 cells.
The cells were treated with IBSS and 20 mM HEPES adjusted to pH 7.4 in the presence of the fluorescent calcium indicator e.g. Fluo-4AM (5 uM) and the plates were incubated at 37° C. and […] for approximately 1 hour and cooled to room temperature. […] Relative Fluorescence Units (RFU) were measured for each response for signal maximum minus minimum during approximately 90 seconds after addition.

[6] = inward, whole-cell patch clamp, read-out: hTRPV3 Patch P1 Inwd
[7] = read-out: hTRPV3 (nM) (Phase 1)
[8] = human TRPV3, read-out: hTRPV3 (nM) Phase 1
[9] = read-out: hTRPV3 HAMA IC50, 2-APB stimulated calcium flux

Q: With COc1ccccc1Oc1ccc(N2CC[C@H](Oc3ncccc3Cl)C2)c(CCO)c1 [Compound 1-237, (S)-2-(2-(3-(3-chloropyridin-2-yloxy)pyrrolidin-1-yl)-5-(2-methoxyphenoxy)phenyl)ethanol] as the compound, how does the half-life at 1 μM ([1]; read-out: LM T1/2 (min) (rat)) read?
A: 8.33 min

Q: And the IC50 (hTRPV3 [2]; [6])?
A: 100 to 1000 nM

Q: And the IC50 (hTRPV3 [2]; [7])?
A: 251 nM

Q: What about the solubility at 40 min [3] of the same compound?
A: ~1.5 µM (≈ 0.661 µg/mL)

Q: And the IC50 (hTRPV3 [4]; hTRPV3 HAMA IC50 (nM) (5 min), 5 min)?
A: > 20000 nM

Q: And the IC50 (hTRPV3 [4]; hTRPV3 HAMA IC50 (nM) (30 min), 30 min)?
A: 19800 nM

Q: With Cc1ccccc1Oc1ccc(CO)c(N2CC[C@H](Oc3ncccc3Cl)C2)c1 [Compound 1-241, (S)-(2-(3-(3-chloropyridin-2-yloxy)pyrrolidin-1-yl)-4-(o-tolyloxy)phenyl)methanol] as the compound, how does the half-life at 1 μM ([1]; read-out: LM T1/2 (min) (rat)) read?
A: 6.19 min

Q: And the IC50 (hTRPV3 [2]; [6])?
A: 10 to 100 nM

Q: What about the IC50 (hTRPV3 [2]; [7]) of the same compound?
A: 18.6 nM

Q: What about the solubility at 40 min [3] of the same compound?
A: ~0.37 µM (≈ 0.152 µg/mL)

Q: What about the “hTRPV3 HAMA IC50 (nM) (5 min)” value (hTRPV3 [4]; 5 min) of the same compound?
A: no fit (5 min) no fit (30 min)

Q: And the “hTRPV3 HAMA IC50 (nM) (30 min)” value (hTRPV3 [4]; 30 min)?
A: no fit (5 min) no fit (30 min)

Q: Which half-life at 1 μM ([1]; read-out: LM T1/2 (min) rat) does the source give for CC(C)c1ccccc1Oc1ccc(C2CCN(C(=O)c3ncccc3Cl)C2)c(CO)c1 (stereo not shown) [Compound 2-12, (3-chloropyridin-2-yl)(3-(2-(hydroxymethyl)-4-(2-isopropylphenoxy)phenyl)pyrrolidin-1-yl)methanone] here?
A: 7.55 min

Q: What about the IC50 (human hERG channels) of the same compound?
A: 12600 nM

Q: What about the IC50 (hTRPV3 [2]; [8]) of the same compound?
A: 101 nM

Q: And the IC50 (hTRPV3 [2]; [6])?
A: 10 to 100 nM

Q: And the solubility at 40 min [3]?
A: > 8 µM

Q: Which IC50 (human hERG channels) does the source give for O=C(c1ccc(F)cn1)N1CCC(c2ccc(-c3ccccc3)nc2CO)C1 (stereo not shown) [Compound 2-80] here?
A: 5520 nM

Q: And the IC50 (hTRPV3 [2]; [8])?
A: 163 nM

Q: What about the IC50 (hTRPV3 [2]; [6]) of the same compound?
A: 100 to 1000 nM

Q: Which half-life at 1 μM ([1]; read-out: LM T1/2 (min) rat) does the source give for CC(C)c1ccccc1Oc1ccc(C2CCN(Cc3ccccn3)C2)c(CO)c1 (stereo not shown) [Compound 2-87, (5-(2-isopropylphenoxy)-2-(1-(pyridin-2-ylmethyl)pyrrolidin-3-yl)phenyl)methanol] here?
A: 2.46 min

Q: And the IC50 (human hERG channels)?
A: 260 nM

Q: What about the IC50 (hTRPV3 [2]; [8]) of the same compound?
A: 699 nM

Q: What about the IC50 (hTRPV3 [2]; [6]) of the same compound?
A: 100 to 1000 nM

Q: Which IC50 (human hERG channels) does the source give for CC(C)c1ccccc1-c1ccc(C2CCN(Cc3ccc(F)cn3)C2)c(CO)c1 (stereo not shown) [Compound 2-95] here?
A: < 1000 nM

Q: And the IC50 (hTRPV3 [2]; [8])?
A: 582 nM

Q: And the IC50 (hTRPV3 [2]; [6])?
A: 100 to 1000 nM

Q: For COc1cncc(C(=O)N2CCC(c3ccc(-c4ccccc4C4CC4)cc3CO)C2)n1 (stereo not shown) [Compound 2-125], which IC50 (hTRPV3 [5]; read-out: FLIPR IC50) is on record?
A: 1.79 µM

Q: What about the IC50 (hTRPV3 [4]; [9]) of the same compound?
A: 99.6 nM

Q: For COc1ncc(C(=O)N2CCC(c3ccc(-c4ccccc4C4CC4)cc3CO)C2)nc1C (stereo not shown) [Compound 2-126], which IC50 (hTRPV3 [5]; read-out: FLIPR IC50) is on record?
A: 1.18 µM

Q: What about the IC50 (hTRPV3 [4]; [9]) of the same compound?
A: 84 nM

Q: With O=C(c1ncon1)N1CCC(c2ccc(-c3ccccc3C3CC3)cc2CO)C1 (stereo not shown) [Compound 2-127] as the compound, how does the IC50 (hTRPV3 [5]; read-out: FLIPR IC50) read?
A: 1.9 µM

Q: What about the IC50 (hTRPV3 [4]; [9]) of the same compound?
A: 130 nM

Q: Which results are given for Cc1nc(C(=O)N2CCC(c3ccc(-c4ccccc4C4CC4)cc3CO)C2)no1 (stereo not shown) [Compound 2-128]?
A: IC50 (hTRPV3 [5]; read-out: FLIPR IC50): 1.85 µM; IC50 (hTRPV3 [4]; [9]): 479 nM

Q: For Cc1nnc(C(=O)N2CCC(c3ccc(-c4ccccc4C4CC4)cc3CO)C2)o1 (stereo not shown) [Compound 2-129], which IC50 (hTRPV3 [5]; read-out: FLIPR IC50) is on record?
A: > 10 µM

Q: For O=C(c1cnc(O)cn1)N1CCC(c2ccc(-c3ccccc3C3CC3)cc2CO)C1 (stereo not shown) [Compound 2-130], which IC50 (hTRPV3 [5]; FLIPR IC50 (uM)) is on record?
A: 4.8 µM

Q: For O=C(c1cncc(O)n1)N1CCC(c2ccc(-c3ccccc3C3CC3)cc2CO)C1 (stereo not shown) [Compound 2-131], which IC50 (hTRPV3 [5]; FLIPR IC50 (uM)) is on record?
A: > 10 µM

Q: With O=C(c1cc(O)ccn1)N1CCC(c2ccc(-c3ccccc3C3CC3)cc2CO)C1 (stereo not shown) [Compound 2-132] as the compound, how does the IC50 (hTRPV3 [5]; read-out: FLIPR IC50) read?
A: > 10 µM

Q: With O=C(c1ccc(O)nn1)N1CCC(c2ccc(-c3ccccc3C3CC3)cc2CO)C1 (stereo not shown) [Compound 2-133] as the compound, how does the IC50 (hTRPV3 [5]; read-out: FLIPR IC50) read?
A: > 10 µM

Q: Which IC50 (hTRPV3 [5]; read-out: FLIPR IC50) does the source give for O=C(c1ccc(CO)cn1)N1CCC(c2ccc(-c3ccccc3C3CC3)cc2CO)C1 (stereo not shown) [Compound 2-134] here?
A: 9.5 µM

Q: For O=C(c1ccc(O)cn1)N1CCC(c2ccc(-c3ccccc3C3CC3)cc2CO)C1 (stereo not shown) [Compound 2-135], which IC50 (hTRPV3 [5]; read-out: FLIPR IC50) is on record?
A: 3.09 µM

Q: For Cc1nc(C(=O)N2CCC(c3ccc(-c4ccccc4C4CC4)cc3CO)C2)cnc1O (stereo not shown) [Compound 2-136], which IC50 (hTRPV3 [5]; read-out: FLIPR IC50) is on record?
A: 5.17 µM

Q: For O=C(c1cnc(CO)cn1)N1CCC(c2ccc(-c3ccccc3C3CC3)cc2CO)C1 (stereo not shown) [Compound 2-137], which IC50 (hTRPV3 [5]; read-out: FLIPR IC50) is on record?
A: > 10 µM

Q: Which IC50 (hTRPV3 [5]; read-out: FLIPR IC50) does the source give for O=C(c1ccc(CO)nn1)N1CCC(c2ccc(-c3ccccc3C3CC3)cc2CO)C1 (stereo not shown) [Compound 2-138] here?
A: > 10 µM

Q: Which IC50 (hTRPV3 [5]; read-out: FLIPR IC50) does the source give for O=C(c1ncccc1O)N1CCC(c2ccc(-c3ccccc3C3CC3)cc2CO)C1 (stereo not shown) [Compound 2-139] here?
A: 7.68 µM
